This is an account of results in ChEMBL document CHEMBL5608178, “Design and synthesis of 7-membered lactam fused hydroxypyridinones as potent metal binding pharmacophores (MBPs) for inhibiting influenza virus PAN endonuclease” (Eur J Med Chem, 2024).

Series [1] addresses Polymerase acidic protein (Influenza A virus (A/Puerto Rico/8/1934(H1N1))) (UniProt P03433). Nature of the series: Inhibition of Influenza A virus N-terminal Polymerase acidic protein endonuclease activity in HEK293T cells transfected with IAV RNA polymerase complex and firefly/renilla luciferase reporter at 10 uM by […] Dual-Glo luciferase assay relative to control. The class given is cell-based. Background: Reporter assays use an easily measured gene product as a stand-in for the process of interest.

Series [2] is described as follows: Cytotoxicity against MDCK cells assessed as decrease in survival rate. Conditions: dog. The class given is toxicity, cell-based, Canis lupus familiaris.
Series [3] has as its system Influenza A virus. Description: Antiviral activity against Influenza A virus A/WSN/33, H1N1 infected in MDCK cells assessed as decrease in viral replication incubated for 72 hrs. The class given is functional, organism-based. The following applies: A/WSN/33, H1N1, MDCK.
The target of series [4] is Polymerase acidic protein (Influenza A virus (A/Puerto Rico/8/1934(H1N1)), UniProt P03433). Description: Inhibition of Influenza A virus N-terminal Polymerase acidic protein endonuclease activity in HEK293T cells transfected with IAV RNA polymerase complex and firefly/renilla luciferase reporter by […] Dual-Glo luciferase assay. The class given is cell-based.

Series [5] has as its system Influenza A virus. Nature of the series: Antiviral activity against Influenza A virus A/WSN/33, H1N1 infected in MDCK cells assessed as suppression of viral titer at 3 uM incubated for 72 hrs relative to control. The class given is functional.

Broadly, the inhibition is how much of the control response was suppressed. One may read the CC50 as the concentration giving 50% cytotoxicity. As usually defined, the EC50 is the midpoint of the concentration-response curve. A word on the IC50: it is the concentration needed to halve the response being measured. A higher IC50 goes with a need for much substance. For `O=C1c2c(O)c(=O)ccn2N(C2c3ccccc3C=Cc3ccccc32)C[C@H]2CCCN12`, in series [1], the inhibition is 91.9%. Further, the CC50 in series [2] stood at 62900 nM. Besides, the EC50 in series [3] was 292 nM. The same compound yielded a concentration for half-maximal inhibition (IC50) in series [4] of 437 nM. In addition, in series [5], the Activity stood at 82.2%.

Consider `CC(C)[C@H]1CN(C2c3ccccc3CCc3ccccc32)n2ccc(=O)c(O)c2C(=O)N1`, for which the inhibition in series [1] amounted to 31%. Still for that read-out and setting: the figure for `O=C1N[C@H](c2ccccc2)CN(C2c3ccccc3CCc3ccccc32)n2ccc(=O)c(O)c21` is 31.6%; for `CC(C)C[C@@H]1CN(C2c3ccccc3CCc3ccccc32)n2ccc(=O)c(O)c2C(=O)N1` it is 56.4%; for `O=C1c2c(O)c(=O)ccn2N(C2c3ccccc3CCc3ccccc32)C[C@@H]2CCCCN12` it is 36.5%. In series [1], `O=C1c2c(O)c(=O)ccn2N([C@@H]2c3ccccc3SCc3c2ccc(F)c3F)[C@@H]2COCCN12` [BALOXAVIR] yielded an inhibition of 99%. Besides, in series [2], the CC50 was 28800 nM. Also, the half-maximal effective concentration (EC50) in series [3] amounted to 1 nM. Further, the IC50 in series [4] was determined as 1 nM.

For `CSCC[C@H]1CN(C2c3ccccc3CCc3ccccc32)n2ccc(=O)c(O)c2C(=O)N1`, in series [1], the inhibition came out at 30.5%.

With `O=C1N[C@H](Cc2ccccc2)CN(C2c3ccccc3CCc3ccccc32)n2ccc(=O)c(O)c21`, the inhibition in series [1] amounted to 49.5%.

For the compound `O=C1c2c(O)c(=O)ccn2N([C@@H]2c3ccccc3SCc3c2ccc(F)c3F)C[C@H]2CCCN12`, in series [2], the CC50 is 15400 nM. Besides, the half-maximal effective concentration (EC50) in series [3] stood at 134 nM. The IC50 in series [4] turned out to be 45 nM. Compound `C[C@@H]1CN(C2c3ccccc3CCc3ccccc32)n2ccc(=O)c(O)c2C(=O)N1` registered an inhibition in series [1] of 75.3%.

Take `O=C1c2c(O)c(=O)ccn2N(C(c2ccc(F)cc2)c2ccc(F)cc2)C[C@H]2CCCN12`: the inhibition in series [1] came out at 50.1%. `O=C1c2c(O)c(=O)ccn2N(C2c3ccccc3SCc3c2ccc(F)c3F)C[C@H]2CCCN12` (stereo not given in full) yielded an inhibition in series [1] of 99.6%. Further, in series [2], the CC50 stood at 29600 nM. Moreover, the concentration for a half-maximal effect (EC50) in series [3] turned out to be 421 nM. The compound also gave an IC50 in series [4] of 82 nM. The Activity in series [5] is listed as 99.9%.

`O=C1NC2(CCCC2)CN(C2c3ccccc3CCc3ccccc32)n2ccc(=O)c(O)c21` returned an inhibition in series [1] of 9.2%.

In the case of `O=C1c2c(O)c(=O)ccn2N([C@H]2c3ccccc3SCc3c2ccc(F)c3F)C[C@H]2CCCN12`, in series [2], the cytotoxic concentration (CC50) was 98500 nM. Further, the concentration giving a half-maximal response (EC50) in series [3] came out at 2880 nM. The compound also yielded an IC50 in series [4] of 231 nM. `O=C1c2c(O)c(=O)ccn2N(C2c3ccccc3CCc3ccccc32)C[C@H]2CCCCN12`: the inhibition in series [1] stood at 66.9%. In the case of `O=C1N[C@@H](Cc2ccccc2)CN(C2c3ccccc3CCc3ccccc32)n2ccc(=O)c(O)c21`, the inhibition in series [1] stood at 49%. In series [1], `CSCC[C@@H]1CN(C2c3ccccc3CCc3ccccc32)n2ccc(=O)c(O)c2C(=O)N1` came in with an inhibition of 64.2%. `O=C1c2c(O)c(=O)ccn2N(C(c2ccccc2)c2ccccc2)C[C@H]2CCCN12` gave an inhibition in series [1] of 48.2%. Regarding `C[C@H]1CN(C2c3ccccc3CCc3ccccc32)n2ccc(=O)c(O)c2C(=O)N1`, the inhibition in series [1] was 37.6%. `O=C1c2c(O)c(=O)ccn2N(C2c3ccccc3CCc3ccccc32)C[C@H]2CCCN12` registered an inhibition in series [1] of 81.1%. The CC50 in series [2] was determined as 34300 nM. Also, in series [3], the concentration for a half-maximal effect (EC50) is 724 nM. In series [4], this compound yielded an IC50 of 2870 nM. `CC(C)C[C@H]1CN(C2c3ccccc3CCc3ccccc32)n2ccc(=O)c(O)c2C(=O)N1` yielded an inhibition in series [1] of 22.4%. In turn, `O=C1c2c(O)c(=O)ccn2N(C2c3ccccc3CCc3ccccc32)C[C@@H]2CCCN12` yielded an inhibition in series [1] of 68.2%.
